Reference: patent EP0131315A2, “Nasal preparations comprising anticholinergic quaternary ammonium salts” (ISTITUTO DE ANGELI S.p.A., priority 1983, dated 1985)
Where “and” joins values, the source holds several entries; their conditions need not be identical. Equal values may be shown once. Read-outs that look alike come from different tables or passages of the source.

What was measured:
[1] = Urinary excretion (bioavailability) after intravenous, oral and nasal administration in the rat; drug in urine determined by muscarinic receptor binding assay; assay type: in vivo, male Sprague-Dawley rats; conditions: for amount of the compound found in the urine / dose excreted at 6 h / dose excreted at 24 h / dose excreted at 12 h: 2 mg/rat; for dose excreted at 6 h / dose excreted at 24 h / dose excreted at 12 h / bioavailability: urine, 2 mg; for dose excreted at 6 h: hours 0-6, mean of 10 rats; for dose excreted at 6 h / dose excreted at 24 h / dose excreted at 12 h: read-out: amount of the compound found in the urine; for dose excreted at 12 h: hours 6-12, mean of 10 rats
Method: As a representative drug of this class of compounds N-cyclopropylmethylscopolamine bromide was employed in the method and in the compositions according to the present invention. The bioavailability of this compound after administration by nasal and oral route has been examined and then compared by the following general method. The investigated drug was administered in equal doses by the nasal, oral and intravenous route. 6, 12 and 24 hours after administration the quantitative excretion into the urine for any of the routes of administration was studied. The total amount of the drug excreted during the investigated time intervals was expressed as percentage of the intravenously eliminated amount, considering the latter value as an equivalent for 100% bioavailability.
In detail the following studies have been carried out. For each experiment 10 male Sprague-Dawley rats, weighing 280+ 20g have been used. For the i.v. administration rats fasted for 18 hours were anaesthetized by intraperitoneal sodium pentobarbital solution 2 ml/kg corresponding to 60 mg/kg/rat. A 4% solution of the drug in buffered saline (pH=7.4) was injected into the femoral vein ([…] corresponding to 2 mg of the active ingredient). For the oral administration 18 hours fasted and conscious rats received an 0.2% solution of the drug in saline by means of a stomach tube (1 ml/rat corresponding to 2 mg of the active principle). For the nasal administration the investigated compounds, for example N-cyclopropylmethyl scopolamine bromide, was administered to 18 hours fasted and as above described anaesthetized rats at a dose of 2 mg/rat.
(§1) This dose corresponds either to 25µl of saline (4% solution) or 5 mg of a 20% gel introduced into both nasal cavities by means of micropipette. After the administration by any route the animals were transfered into metabolic cages and received 3 ml of water by stomach tube. The urine was collected 6,12 and 24 hours after administration and the excreted drug was determined with the following original method which is based on the binding affinity of the drugs to their pharmacological receptors. […] It follows from this that knowing the affinity of the drugs it is possible to assay the concentration of the drugs in biological fluids. For this a suitable in vitro receptor preparation and a radio ligand that can bind specifically to the receptor and can be displaced by the test compound is needed. In the present invention tritiated N-methyl- scopolamine (^3H-NMS) in a final concentration of 3.10^-10M that occupies 50% of the muscarinic receptors was employed. As in vitro receptor preparation we used a homogenate from rat cerebral cortex diluted 1:3000 in 20 mM HEPES, 100 mM NaCl and 10 mM MgCl2 (pH 7.4). After incubation of ^3H-NMS with the receptor preparation receptor bound ligand was separated from free ligand by centrifugation and the amountof the receptor bound ligand was measured as radioactivity (dpm) in the pellet.

[2] = tested on: muscarinic receptor of cerebral cortex; assay: Displacement of 3H-NMS from the muscarinic receptor (standard curve, Fig. 1); assay type: binding; conditions: rat cerebral cortex homogenate, 3H-NMS 3.10^-10M, increasing concentrations
Method: as §1, with “pellet. […]” for “pellet.”

C[N+]1(CC2CC2)C2CC(OC(=O)C(CO)c3ccccc3)CC1C1OC12 (centres unmarked) [N-cyclopropylmethylscopolamine bromide]
PERCENT URINARY EXCRETION BY OTHER ROUTES RELATIVE TO I.V. ADMINISTRATION ([1]; I.V., hours 0-6, rat (relative to total 0-24 h i.v. excretion)): 88.01%
PERCENT URINARY EXCRETION BY OTHER ROUTES RELATIVE TO I.V. ADMINISTRATION ([1]; I.V., hours 0-24, rat (reference = 100)): 100.00%
PERCENT URINARY EXCRETION BY OTHER ROUTES RELATIVE TO I.V. ADMINISTRATION ([1]; I.V., hours 6-12, rat): 8.45%
PERCENT URINARY EXCRETION BY OTHER ROUTES RELATIVE TO I.V. ADMINISTRATION ([1]; I.V., hours 12-24, rat): 3.54%
PERCENT URINARY EXCRETION BY OTHER ROUTES RELATIVE TO I.V. ADMINISTRATION ([1]; NASAL GEL, hours 0-6, rat): 9.01%
PERCENT URINARY EXCRETION BY OTHER ROUTES RELATIVE TO I.V. ADMINISTRATION ([1]; NASAL GEL, hours 0-24, rat): 22.85%
PERCENT URINARY EXCRETION BY OTHER ROUTES RELATIVE TO I.V. ADMINISTRATION ([1]; NASAL GEL, hours 6-12, rat): 8.90%
PERCENT URINARY EXCRETION BY OTHER ROUTES RELATIVE TO I.V. ADMINISTRATION ([1]; NASAL GEL, hours 12-24, rat): 4.94%
PERCENT URINARY EXCRETION BY OTHER ROUTES RELATIVE TO I.V. ADMINISTRATION ([1]; NASAL SOLUTION, hours 0-6, rat): 21.23%
PERCENT URINARY EXCRETION BY OTHER ROUTES RELATIVE TO I.V. ADMINISTRATION ([1]; NASAL SOLUTION, hours 0-24, rat): 23.00%
PERCENT URINARY EXCRETION BY OTHER ROUTES RELATIVE TO I.V. ADMINISTRATION ([1]; NASAL SOLUTION, hours 6-12, rat): 1.43%
PERCENT URINARY EXCRETION BY OTHER ROUTES RELATIVE TO I.V. ADMINISTRATION ([1]; NASAL SOLUTION, hours 12-24, rat): 0.34%
PERCENT URINARY EXCRETION BY OTHER ROUTES RELATIVE TO I.V. ADMINISTRATION ([1]; OS, hours 0-6, rat): 1.02%
PERCENT URINARY EXCRETION BY OTHER ROUTES RELATIVE TO I.V. ADMINISTRATION ([1]; OS, hours 0-24, rat): 1.40%
PERCENT URINARY EXCRETION BY OTHER ROUTES RELATIVE TO I.V. ADMINISTRATION ([1]; OS, hours 6-12, rat): 0.30%
PERCENT URINARY EXCRETION BY OTHER ROUTES RELATIVE TO I.V. ADMINISTRATION ([1]; OS, hours 12-24, rat): 0.08%
release profile from urinary excretion ([1]; nasal gel, excretion nearly constant 0-6 and 6-12 hours, rat): prolonged release
absorption after nasal administration as compared to the per oral form ([1]; nasal, both by solution and in the form of gel, rat): 16 times
amount of the compound found in the urine ([1]; nasal, gel, hours 0-24, individual rats, 1440 min): 5.26 percentage of the total administered dose and 11.19 percentage of the total administered dose and 5.28 percentage of the total administered dose and 5.19 percentage of the total administered dose and 8.40 percentage of the total administered dose and 6.94 percentage of the total administered dose
amount of the compound found in the urine ([1]; nasal, gel, hours 6-12, individual rats, 720 min): 2.00 percentage of the total administered dose and 4.58 percentage of the total administered dose and 1.63 percentage of the total administered dose and 2.17 percentage of the total administered dose and 3.24 percentage of the total administered dose and 2.90 percentage of the total administered dose and 1.53 percentage of the total administered dose
amount of the compound found in the urine ([1]; nasal, gel, hours 12-24, individual rats, 1440 min): 1.19 percentage of the total administered dose and 1.9 percentage of the total administered dose and 2.0 percentage of the total administered dose and 0.63 percentage of the total administered dose and 2.04 percentage of the total administered dose and 1.18 percentage of the total administered dose
amount of the compound found in the urine ([1]; nasal, solution, hours 0-6, individual rats, 360 min): 4.12 percentage of the total administered dose and 6.25 percentage of the total administered dose and 5.53 percentage of the total administered dose and 8.86 percentage of the total administered dose and 2.93 percentage of the total administered dose and 2.68 percentage of the total administered dose and 4.82 percentage of the total administered dose and 11.42 percentage of the total administered dose and 5.17 percentage of the total administered dose and 4.55 percentage of the total administered dose
amount of the compound found in the urine ([1]; nasal, solution, hours 0-24, individual rats, 1440 min): 4.52 percentage of the total administered dose and 6.59 percentage of the total administered dose and 5.75 percentage of the total administered dose and 9.23 percentage of the total administered dose and 3.17 percentage of the total administered dose and 3.11 percentage of the total administered dose and 5.55 percentage of the total administered dose and 11.88 percentage of the total administered dose and 6.12 percentage of the total administered dose and 5.07 percentage of the total administered dose
amount of the compound found in the urine ([1]; nasal, solution, hours 6-12, individual rats, 720 min): 0.33 percentage of the total administered dose and 0.25 percentage of the total administered dose and 0.13 percentage of the total administered dose and 0.23 percentage of the total administered dose and 0.19 percentage of the total administered dose and 0.39 percentage of the total administered dose and 0.65 percentage of the total administered dose and 0.28 percentage of the total administered dose and 0.86 percentage of the total administered dose and 0.44 percentage of the total administered dose
dose excreted at 6 h ([1]; rat, nasal, gel): 2.39%
dose excreted at 24 h ([1]; rat, nasal, gel, hours 0-24, mean of 10 rats): 6.06%
dose excreted at 12 h ([1]; rat, nasal, gel): 2.36%
dose excreted at 24 h ([1]; rat, nasal, gel, hours 12-24, mean of 10 rats): 1.31%
dose excreted at 6 h ([1]; rat, nasal, solution): 5.63%
dose excreted at 24 h ([1]; rat, nasal, solution, hours 0-24, mean of 10 rats): 6.1%
dose excreted at 12 h ([1]; rat, nasal, solution): 0.38%
dose excreted at 24 h ([1]; rat, nasal, solution, hours 12-24, mean of 10 rats): 0.09%
dose excreted at 6 h ([1]; rat, iv, intravenous): 23.2%
dose excreted at 24 h ([1]; rat, iv, intravenous, hours 0-24, individual rats): 31%
dose excreted at 24 h ([1]; rat, iv, intravenous, hours 0-24, mean of 10 rats): 26.5%
dose excreted at 12 h ([1]; rat, iv, intravenous): 2.24%
dose excreted at 24 h ([1]; rat, iv, intravenous, hours 12-24, mean of 10 rats): 0.94%
dose excreted at 6 h ([1]; rat, po, oral): 0.27%
dose excreted at 24 h ([1]; rat, po, oral, hours 0-24, mean of 10 rats): 0.37%
dose excreted at 12 h ([1]; rat, po, oral): 0.08%
dose excreted at 24 h ([1]; rat, po, oral, hours 12-24, mean of 10 rats): 0.02%
bioavailability ([1]; after oral administration, rat, read-out: bioavailability): 1.4%
bioavailability ([1]; nasal route, both galenic formulations, solution and gel, rat, read-out: absolute bioavailability): 23%
ability to displace 3H-NMS from the muscarinic receptor [2]: inhibit the specific binding between ^3H-NMS and receptor in a dose dependent manner
